Entries after “also recorded” stand apart in the source; their conditions may differ.
Assays:
[1] = test system: Vascular smooth muscle (BO54) cells; format: cell-based, baboon
[2] = test system: vascular smooth muscle cells; test: In vitro DNA (3H-thymidine) and protein (3H-leucine) synthesis inhibition; format: cell-based; details: 24 hour assays, 5% FBS
Protocol: The ability of various therapeutic agents to inhibit DNA synthesis and protein synthesis in vascular smooth muscle cells was tested. ^3H-leucine and ^3H-thymidine uptake and cytotoxicity assays were conducted in accordance with the following protocols.
5 minute exposure: ^3H-leucine uptake: Vascular smooth muscle cells at 40,000 cells/ml were seeded in sterile 24 well plates at 1 ml/well. The plates were incubated overnight at 37° C., 5% CO2, 95% air in a humidified atmosphere (saturation). Log dilutions of the therapeutic agent of interest were incubated with the vascular smooth muscle cells for 5 minutes or 24 hours. […] Vials were counted on a Beckman LS2800 liquid scintillation counter interfaced with Beckman “Data Capture” software for conversion to a Lotus 1-2-3® file and analysis using Lotus 1-2-3®.
5 minute exposure: ^3H-thymidine uptake: Vascular smooth muscle cells were incubated in complete medium with 5% FBS (Gibco) overnight at 37° C. in a humidified, 5% CO2 environment in sterile 24 well plates. […] The cells were visually scored for viability and cell number. […] Vials were counted on a Beckman LS2800 liquid scintillation counter interfaced with Beckman “Data Capture” software for conversion to a Lotus 1-2-3® file and analysis using Lotus 1-2-3®.

[3] = test system: vascular smooth muscle cells of balloon-traumatized arteries; format: in vivo, pig; details: pig, in vivo
[4] = test system: target (BO54 and M14) and non-target (HT29) cells; format: cell-based

CC(=O)O[C@@H]1/C=C\[C@@](C)(O)C(=O)[C@@H](C)C/C=C\[C@H]2[C@H](O)C(C)=C(C)[C@H]3C(Cc4ccccc4)NC(=O)[C@]132 (stereo partly shown) [cytochalasin C]
minimum effective dose (MED) [1]: 0.01 µg/mL

CN[C@@H]1C[C@H]2O[C@@](C)([C@@H]1OC)n1c3ccccc3c3c4c(c5c6ccccc6n2c5c31)C(=O)NC4 [staurosporin]
therapeutic range: 3H-leucine (protein synthesis) versus 3H-thymidine (DNA synthesis) inhibition [2]: exhibits a differential between ^3H-leucine and ^3H-thymidine uptake
BRDU uptake (cell proliferation) [3]: inhibits target cell proliferation; also recorded: inhibited BRDU uptake (i.e., cell proliferation) without killing the vascular smooth muscle cells

Pseudomonas exotoxin [PE]
metabolic activity measured in the MTT assay [4]: nonspecific cytotoxicity

Source: US8158670B2 (priority 1996, dated 2012)
